Assays:
[1] = test system: carrageenan-induced paw swelling; assay: Carrageenan Paw Edema Model; assay type: in vivo; settings: rat, 100 mg/kg p.o., 2 hours post carrageenan administration
Text: Procedure for Testing Antiinflammatory Response
The procedure used to detect the antiinflammatory activity of a compound of the present invention for which there is a good correlation with human efficacy is the Carrageenan Paw Edema Model (as described in Levy, L., Carrageenan Paw Edema in the Mouse, Life Sci., 1969, 8, 11, 601-6).
Male, Sprague-Dawley rats (Charles River Laboratories) 175-200 g are housed in a climate-controlled, virus free environment for at least 5 days prior to testing.
Carrageenan is prepared in saline (0.5% carrageenan solution in 0.9% saline) and injected in a 0.1 mL volume into the footpad of the rat. Test compound is administered orally by gavage 30-60 minutes prior to footpad challenge. Paws are dipped into a mercury plethysmograph edema computer (Buxco Electronics) and the foot displacement is recorded at 0 time and at various times after challenge with carrageenan. Rats treated with test compound are compared to vehicle controls for any inhibition of carrageenan induced paw swelling.
The % Inhibition (% I) by a compound tested was calculated according to the formula: %I=100−[100×(TCPV/VCPV)]; wherein TCPV is defined as the mean Change in Paw Volume in the Treated group and VCPV is the mean Change in Paw Volume in the Vehicle group.

[2] = test system: maximal electroshock extensor seizure; assay: Mouse maximal electroshock test (MES) anticonvulsant model; assay type: in vivo; settings: po, orally administered, read-out: MES Response ED50
Method: Procedure for Testing in Mouse Anticonvulsant Model
The activity of the present compounds as anticonvulsant agents was determined using a standard mouse “maximal electroshock test” (MES). In this test, activity was indicated by a block of the […] extensor seizure, as described by Swinyard, et al. (J. Pharmacol. Exptl. Therap., 1952, 106, 319). A more recent description of current anticonvulsant drug screening is given in Swinyard, et al., in Epilepsia, 1978, 19, 409.
The anticonvulsant activity of the instant compounds is shown in Table 5 and was evaluated according to the Swinyard (1952) method. The abbreviations used in the table have the following meanings: mpk refers to the dose orally administered in “mg per Kg;” and, ED50 refers to the “50% Effective Dose” orally administered in mpk. The values marked by an * represent the number of mice protected/number of mice tested; therefore, a value of 3/3 represents that the number of mice protected matched the number of mice tested at the indicated dose.

[3] = test system: carrageenan-induced thermal hyperalgesia; assay: Carrageenan Paw Hyperalgesia Test; assay type: in vivo; settings: mouse, orally 30 mg per Kg, 90 minutes following oral dosing
Text: Procedure for Testing Hyperalgesic Effect
The procedure used to detect the antihyperalgesic activity of a compound of the present invention for which there is a good correlation with human efficacy is the Carrageenan Paw Hyperalgesia Test (as described in Sammons, et al., Brain Research, 2000, 876, 48-54).
Male, CD-1 mice (Charles River Laboratories) weighing 22-30 g each at the time of testing are housed in a climate-controlled, virus free environment for at least 7 days prior to testing. Food and water are available ad libitum up to test time.
Test mice are […] by injecting an irritant (e.g., 0.02 mL of a 1.0% carrageenan solution in 0.9% saline) subcutaneously into the subplantar tissue of one of the hind paws to stimulate an acute inflammatory reaction. The response of the animal following carrageenan injection is subsequently evaluated at a fixed later time and verified to be hyperalgesic relative to a baseline response obtained immediately prior to carrageenan injection.
The mice were dosed orally with either Compound 1 dissolved in a suspension of 20% hydroxypropyl beta cyclodextrin in distilled water or with vehicle alone at a fixed time following carrageenan injection. […] Response latencies were subsequently evaluated at fixed times following oral dosing to assess reversal of hyperalgesia caused by treatment with Compound 1 as compared to vehicle treatment. […]

[4] = test system: voltage-gated sodium channels; assay: Fluorometric membrane potential assay in SK-N-SH cells (veratridine stimulus, FLIPR); assay type: cell-based; settings: 10 μM compound, 5 μM veratridine
Method: Screening Assay for Voltage-Gated Sodium Channel Antagonists Fluorometric Membrane Potential Assay
SK-N-SH neuroblastoma cells were maintained in a propagation medium containing modified Eagle's medium and 10% (v/v) fetal bovine serum and were incubated at 37° C. in a 5% CO2 atmosphere. Only cells with fewer than 20 passages were used in each assay. All drugs were prepared in DMSO, and the final concentration of solvent was less than 0.1% (v/v). Veratridine, a toxin that selectively promotes persistent activation of voltage-gated sodium channels, served as the stimulus. 24 hr prior to testing, 1×10^5 cells/well were plated into 96-well plates specifically designed for use in a fluorescent imaging plate reader (FLIPR) (Molecular Devices, Sunnyvale, Calif.)
Prior to screening, monolayers of cells were loaded with 100 μL/well of a proprietary voltage-sensitive dye (Molecular Devices, Sunnyvale, Calif.) for 30 min at 37° C. After this incubation period, the cells were stimulated with 5 μM veratridine in the presence or absence of investigational compounds (prepared at a final concentration of 10 μM in DMSO). A sample containing 5 μM veratridine and 10 μM tetrodotoxin accounted for nonspecific activity. The fluorescence was monitored by the FLIPR (Molecular Devices) from 10 sec prior to drug addition (50 μL) to 170 sec after drug addition at 25° C. During sodium channel activation, the cells depolarize and the dye associates with cell membranes, resulting in increased fluorescence.

Compound: Cn1cc(C(=O)c2ccncc2)cc1C(=O)c1ccc(Cl)cc1 [Cpd 1, [5-(4-Chlorobenzoyl)-1-methyl-1H-pyrrol-3-yl]pyridin-4-ylmethanone]
- % inhibition of carrageenan-induced paw swelling [1]: 35%
- ED50 [2]: 157 mg/kg
- % Recovery (reversal of hyperalgesia) [3]: 84%
- % FI at 10 μM (% fluorescence inhibition) [4]: 32%

— patent publication US6897319B2, “Useful aroyl pyrrole heteroaryl methanones and methanols” (Ortho-McNeil Pharmaceutical, Inc., priority 2001, dated 2005)
